According to the CheMixHub viscosity set:
“And” between values parts separate entries of the source, which are not always exact repeats. Equal entries are not always repeated.

Key:
[1] = xn = mol fraction of the nth substance listed

O=Cc1ccccc1
viscosity
Details | 293.15 K | 298.1 K | 298.15 K | 303.15 K | 308.15 K | 313.15 K | 318.15 K | 323.15 K
100 kPa | 1.495 mPa·s | – | – | – | – | – | – | –
101 kPa | – | 1.37 mPa·s | 1.392 mPa·s | 1.26 mPa·s | 1.215 mPa·s | – | 0.9051 mPa·s and 1.051 mPa·s | 0.975 mPa·s
101.33 kPa | 1.397 mPa·s | – | 1.445 mPa·s and 1.321 mPa·s and 1.385 mPa·s | 1.278 mPa·s | 1.13 mPa·s and 1.178 mPa·s | 1.17 mPa·s | 1.034 mPa·s | 1.072 mPa·s

Cc1ccc(C)cc1
Details | viscosity
293.15 K, 101 kPa | 0.5756 mPa·s and 0.6402 mPa·s and 0.6388 mPa·s
293.15 K, 101.2 kPa | 0.6517 mPa·s
293.15 K, 101.3 kPa | 0.6332 mPa·s and 0.6589 mPa·s
298 K, 101.3 kPa | 0.615 mPa·s
298.15 K, 100 kPa | 0.6118 mPa·s
298.15 K, 101.2 kPa | 0.6083 mPa·s
303.15 K, 101.2 kPa | 0.5753 mPa·s
303.15 K, 101.3 kPa | 0.5702 mPa·s
303.15 K, 101.32 kPa | 0.564 mPa·s
303.15 K, 101.33 kPa | 0.5694 mPa·s and 0.519 mPa·s and 0.57 mPa·s
307.35 K, 101.33 kPa | 0.539 mPa·s
308.15 K, 100 kPa | 0.5508 mPa·s
308.15 K, 101.2 kPa | 0.5364 mPa·s
308.15 K, 101.3 kPa | 0.5381 mPa·s
313.15 K, 101.2 kPa | 0.5094 mPa·s
313.15 K, 101.3 kPa | 0.5309 mPa·s and 0.5117 mPa·s and 0.5086 mPa·s
313.15 K, 101.33 kPa | 0.5064 mPa·s
318 K, 101.3 kPa | 0.4919 mPa·s
318.15 K, 101 kPa | 0.4925 mPa·s and 0.462 mPa·s and 0.483 mPa·s
318.15 K, 101.2 kPa | 0.5049 mPa·s
318.15 K, 101.3 kPa | 0.4817 mPa·s
323.15 K, 101.3 kPa | 0.4738 mPa·s and 0.4571 mPa·s

CCCCCCCCCCCCOS(=O)(=O)[O-].CCCCn1cc[n+](C)c1
Details | viscosity [mPa·s]
303.15 K, 101 kPa | 1.32e+07

CCOC(=O)c1ccccc1C(=O)OCC
Details | viscosity [mPa·s]
313.15 K, 101.33 kPa | 6.3

CC(O)C(C)O (stereo not drawn)
viscosity [mPa·s]
Details | 308.15 K | 313.15 K | 318.15 K | 323.15 K
101 kPa | – | – | – | 16.98
101.3 kPa | 57.11 | 39.26 | 27.62 | –

OCCOCCO
viscosity
Details | 293.15 K | 298.1 K | 298.15 K | 308.15 K | 313.15 K
101 kPa | 38.82 mPa·s and 38.82 mPa·s and 38.82 mPa·s (2×) | 27.87 mPa·s | 27.15 mPa·s and 27.14 mPa·s | 17.26 mPa·s | 14.81 mPa·s
101.32 kPa | 33.6 mPa·s | – | – | – | 12.8 mPa·s
101.33 kPa | – | – | 26.81 mPa·s | – | –

[Cl-].[Cl-].[Cl-].[Cl-].[Ge+4]
101 kPa
Details | viscosity [mPa·s]
293.15 K | 0.599
298.15 K | 0.589
303.15 K | 0.561
313.15 K | 0.516

COC(=O)OCC(F)(F)F
100 kPa
Details | viscosity [mPa·s]
298.15 K | 1
313.15 K | 0.74

CC(C)CCCC(C)CCCC(C)CCCCC(C)CCCC(C)CCCC(C)C (stereo not drawn)
100 kPa
Details | viscosity [mPa·s]
293.15 K | 35.3
313.15 K | 15.4

Fc1ccccc1
101 kPa
Details | viscosity
303.15 K | 0.514 mPa·s and 0.523 mPa·s and 0.523 mPa·s
308.15 K | 0.495 mPa·s and 0.495 mPa·s
313.15 K | 0.46 mPa·s and 0.467 mPa·s and 0.467 mPa·s

[Br-].[Br-].[Br-].[Br-].[Sn+4]
101 kPa
Details | viscosity
313.15 K | 1.97 mPa·s and 2.101 mPa·s
323.15 K | 1.78 mPa·s

C=C(C)C(=O)OCCCCCCC
101 kPa
Details | viscosity [mPa·s]
303 K | 1.516
313 K | 1.275
323 K | 1.105

O=C(O)C(Cl)Cl
101 kPa
Details | viscosity [mPa·s]
308.15 K | 4.779
323.15 K | 3.243

c1ccc(Nc2ccccc2)cc1
Details | viscosity [mPa·s]
323.15 K, 101 kPa | 5.95

CCCCCCCCCCCCO + C=CC(=O)OCC
viscosity [mPa·s], [1], 101.3 kPa
Details | x2 = 0.0932 | x2 = 0.2669 | x2 = 0.3351 | x2 = 0.4687 | x2 = 0.5769 | x2 = 0.7542 | x2 = 0.8231 | x2 = 0.8907 | x2 = 0.9643 | x2 = 0.9743
298.15 K | 11.28 | 6.404 | 5.497 | 3.183 | 2.253 | 1.192 | 0.963 | 0.74 | 0.584 | 0.565
308.15 K | 10.08 | 4.772 | 4.182 | 2.515 | 1.748 | 0.997 | 0.792 | 0.633 | 0.512 | 0.497

CCc1cccc(CC)c1 + CCCCCCCCCCCC
viscosity [mPa·s], [1], 102 kPa
Details | x1 = 0.0991 | x1 = 0.2011 | x1 = 0.2996 | x1 = 0.4004 | x1 = 0.5006 | x1 = 0.5983 | x1 = 0.6998 | x1 = 0.7998 | x1 = 0.9001
293.15 K | 1.4 | 1.31 | 1.23 | 1.16 | 1.09 | 1.03 | 0.971 | 0.927 | 0.885
303.15 K | 1.18 | 1.11 | 1.05 | 1 | 0.94 | 0.9 | 0.852 | 0.811 | 0.778
313.15 K | 1.01 | 0.962 | 0.916 | 0.871 | 0.831 | 0.792 | 0.751 | 0.717 | 0.69
323.15 K | 0.886 | 0.843 | 0.806 | 0.768 | 0.735 | 0.703 | 0.67 | 0.642 | 0.618

C[N+](C)(C)CCO.[Cl-] + CC(O)CO
[1]
Details | viscosity [mPa·s]
293.15 K, 100 kPa, x1 = 0.25 | 89.38
293.15 K, 101 kPa, x2 = 0.8 | 95.09
293.15 K, 101.3 kPa, x2 = 0.7498 | 94.05
293.15 K, 101.3 kPa, x2 = 0.8003 | 80.19
293.15 K, 101.3 kPa, x2 = 0.8328 | 73.34
293.15 K, 101.3 kPa, x2 = 0.8567 | 70.57
298 K, 100 kPa, x1 = 0.333 | 95.5
298 K, 101.3 kPa, x1 = 0.333 | 70
298.15 K, 100 kPa, x1 = 0.25 | 68.43
298.15 K, 101.3 kPa, x2 = 0.7498 | 72.1
298.15 K, 101.3 kPa, x2 = 0.8003 | 61.49
298.15 K, 101.3 kPa, x2 = 0.8328 | 57.12
298.15 K, 101.3 kPa, x2 = 0.8567 | 55.1
298.15 K, 101.33 kPa, x2 = 0.7 | 36
303 K, 100 kPa, x1 = 0.333 | 74.2
303.15 K, 100 kPa, x1 = 0.25 | 53.34
303.15 K, 101 kPa, x2 = 0.8 | 56.64
303.15 K, 101.3 kPa, x2 = 0.7498 | 56.26
303.15 K, 101.3 kPa, x2 = 0.8003 | 47.74
303.15 K, 101.3 kPa, x2 = 0.8328 | 44.41
303.15 K, 101.3 kPa, x2 = 0.8567 | 43.01
308 K, 100 kPa, x1 = 0.333 | 57.6
308.15 K, 100 kPa, x1 = 0.25 | 42.26
308.15 K, 101.3 kPa, x2 = 0.7498 | 44.5
308.15 K, 101.3 kPa, x2 = 0.8003 | 37.47
308.15 K, 101.3 kPa, x2 = 0.8328 | 34.61
308.15 K, 101.3 kPa, x2 = 0.8567 | 33.33
313 K, 100 kPa, x1 = 0.333 | 46.2
313.15 K, 100 kPa, x1 = 0.25 | 33.93
313.15 K, 101 kPa, x2 = 0.8 | 36.06
313.15 K, 101.3 kPa, x2 = 0.7498 | 35.89
313.15 K, 101.3 kPa, x2 = 0.8003 | 30.4
313.15 K, 101.3 kPa, x2 = 0.8328 | 27.67
313.15 K, 101.3 kPa, x2 = 0.8567 | 26.42
318 K, 100 kPa, x1 = 0.333 | 37.9
318.15 K, 100 kPa, x1 = 0.25 | 27.71
318.15 K, 101.3 kPa, x2 = 0.7498 | 29.15
318.15 K, 101.3 kPa, x2 = 0.8003 | 24.7
318.15 K, 101.3 kPa, x2 = 0.8328 | 22.49
318.15 K, 101.3 kPa, x2 = 0.8567 | 21.11
323 K, 100 kPa, x1 = 0.333 | 31.8
323 K, 101.3 kPa, x1 = 0.333 | 19
323.15 K, 100 kPa, x1 = 0.25 | 22.88
323.15 K, 101 kPa, x2 = 0.8 | 24.26
323.15 K, 101.3 kPa, x2 = 0.7498 | 24.25
323.15 K, 101.3 kPa, x2 = 0.8003 | 20.43
323.15 K, 101.3 kPa, x2 = 0.8328 | 18.56
323.15 K, 101.3 kPa, x2 = 0.8567 | 17.41
